# Measured values published in patent US20190255086A1, “Compositions and Methods for Treating an Infection” (CMPD Licensing, LLC, priority 2015, published 2019).
# Columns and labels:
# Blastomyces dermatitidis = assay: Expected efficacy of anti-fungal agents against various fungi (Table 4)
# Aspergillus fumigatus = assay: as above
# [1] = tested on: Trichophyton mentagrophytes; assay: as above
# Histoplasma duboisii = details: expected efficacy
# Trichophyton rubrum = assay: Expected efficacy of anti-fungal agents against various fungi (Table 4)
# Coccidioides immitis = details: expected efficacy
# Sporothrix schenckii = assay: Expected efficacy of anti-fungal agents against various fungi (Table 4)
# Cryptococcus neoformans = assay: as above
# Candida species = assay: as above
# Aspergillus terreus = assay: as above
# Aspergillus niger = assay: as above
# Leishmania donovani = assay: as above
# [2] = tested on: Methicillin resistant staph aureus (MRSA); assay: Expected efficacy of anti-bacterial agents against various bacteria (Tables 5 and 6); details: Gram: pos
# Citrobacter freundii = assay: as above; details: Gram: neg
# Enterobacter cloacae = assay: as above; details: Gram: neg
# Vibrio cholerae = assay: as above; details: Gram: neg
# Streptococcus pyogenes = assay: as above; details: Gram: pos
# Neisseria gonorrhoeae = assay: as above; details: Gram: neg
# Morganella morganii = assay: as above; details: Gram: neg
# Campylobacter jejuni = assay: as above; details: Gram: neg
# Moraxella catarrhalis = assay: as above; details: Gram: neg
# Bordetella pertussis = assay: as above; details: Gram: neg
# Clostridium perfringens = details: expected efficacy; Clostridium perfringens; Gram: anaer
# Haemophilus ducreyi = assay: Expected efficacy of anti-bacterial agents against various bacteria (Tables 5 and 6); details: Gram: neg
# Pseudomonas aeruginosa = assay: as above; details: Gram: neg
# Providencia stuartii = assay: as above; details: Gram: neg
# Providencia rettgeri = assay: as above; details: Gram: neg
# Yersinia pestis = details: expected efficacy; Yersinia pestis; Gram: neg
# Brucella species = details: expected efficacy; Brucella species; Gram: neg
# [3] = tested on: Staphylococcus aureus (MSSA); assay: Expected efficacy of anti-bacterial agents against various bacteria (Tables 5 and 6); details: Gram: pos
# Enterobacter aerogenes = assay: as above; details: Gram: neg
# Proteus vulgaris = assay: as above; details: Gram: neg
# Haemophilus influenzae = assay: as above; details: Gram: neg
# Corynebacterium jeikeium = assay: as above; details: Gram: pos
# Rickettsiae = details: expected efficacy; Rickettsiae; Gram: neg
# Escherichia coli = assay: Expected efficacy of anti-bacterial agents against various bacteria (Tables 5 and 6); details: Gram: neg
# [4] = tested on: Acinetobacter calcoaceticus; assay: as above; details: Gram: neg
# [5] = tested on: gram-positive staphylococci and streptococci; details: general background statement; cited from earlier work
# [6] = tested on: Corynebacterium urealyticum; assay: Expected efficacy of anti-bacterial agents against various bacteria (Tables 5 and 6); details: Gram: pos
# Pseudomonas fluorescens = assay: as above; details: Gram: neg
# Acinetobacter lwoffii = assay: as above; details: Gram: neg
# Klebsiella oxytoca = assay: as above; details: Gram: neg
# Citrobacter diversus = assay: as above; details: Gram: neg
# Shigella flexneri = assay: as above; details: Gram: neg
# Enterobacter sakazakii = assay: as above; details: Gram: neg
# [7] = tested on: Klebsiella (Calymmatobacterium) granulomatis; assay: as above; details: Gram: neg
# Neisseria meningitidis = assay: as above; details: Gram: neg
# Acinetobacter baumannii = assay: as above; details: Gram: neg
# Klebsiella pneumoniae = assay: as above; details: Gram: neg
# Francisella tularensis = details: expected efficacy; Francisella tularensis; Gram: neg
# Proteus mirabilis = assay: Expected efficacy of anti-bacterial agents against various bacteria (Tables 5 and 6); details: Gram: neg
# Bartonella bacilliformis = assay: as above; details: Gram: neg
# Legionella pneumophila = details: expected efficacy; Legionella pneumophila; Gram: neg
# Shigella boydii = assay: Expected efficacy of anti-bacterial agents against various bacteria (Tables 5 and 6); details: Gram: neg
# Serratia marcescens = assay: as above; details: Gram: neg
# Shigella sonnei = assay: as above; details: Gram: neg
# Shigella dysenteriae = assay: as above; details: Gram: neg
# Salmonella typhi = assay: as above; details: Gram: neg
# Fusarium species = assay: Expected efficacy of anti-fungal agents against various fungi (Table 4)
smiles,measurement,setting,value
CCC(C)n1ncn(-c2ccc(N3CCN(c4ccc(OC[C@H]5CO[C@](Cn6cncn6)(c6ccc(Cl)cc6Cl)O5)cc4)CC3)cc2)c1=O (mixture of isomers) [Itraconazole],Efficacy of various antifungal agents,Blastomyces dermatitidis,yes
same,Efficacy of various antifungal agents,Aspergillus fumigatus,yes
same,Efficacy of various antifungal agents,[1],yes
same,Efficacy of various antifungal agents,Histoplasma duboisii,yes
same,Efficacy of various antifungal agents,Trichophyton rubrum,yes
same,Efficacy of various antifungal agents,Coccidioides immitis,yes
same,Efficacy of various antifungal agents,Sporothrix schenckii,yes
same,Efficacy of various antifungal agents,Cryptococcus neoformans,yes
same,Efficacy of various antifungal agents,Candida species,yes
C[C@@H]1[C@H](O)[C@@H](C)/C=C/C=C/C=C/C=C/C=C/C=C/C=C/[C@H](O[C@@H]2O[C@H](C)[C@@H](O)[C@H](N)[C@@H]2O)C[C@@H]2O[C@](O)(C[C@@H](O)C[C@@H](O)[C@H](O)CC[C@@H](O)C[C@@H](O)CC(=O)O[C@H]1C)C[C@H](O)[C@H]2C(=O)O [Amphotericin],Efficacy of various antifungal agents,Aspergillus terreus,yes
same,Efficacy of various antifungal agents,Blastomyces dermatitidis,yes
same,Efficacy of various antifungal agents,Aspergillus fumigatus,yes
same,Efficacy of various antifungal agents,Aspergillus niger,yes
same,Efficacy of various antifungal agents,Coccidioides immitis,yes
same,Efficacy of various antifungal agents,Cryptococcus neoformans,yes
same,Efficacy of various antifungal agents,Leishmania donovani,yes
same,Efficacy of various antifungal agents,Candida species,yes
"C/C(=C\C(=O)OCCCCCCCCC(=O)O)C[C@@H]1OC[C@H](C[C@@H]2O[C@H]2[C@@H](C)[C@H](C)O)[C@@H](O)[C@H]1O [Bactroban, Mupirocin]",Efficacy of various antibiotic agents,[2],yes
same,Efficacy of various antibiotic agents,Citrobacter freundii,no
same,Efficacy of various antibiotic agents,Enterobacter cloacae,no
same,Efficacy of various antibiotic agents,Vibrio cholerae,no
same,Efficacy of various antibiotic agents,Streptococcus pyogenes,yes
same,Efficacy of various antibiotic agents,Neisseria gonorrhoeae,no
same,Efficacy of various antibiotic agents,Morganella morganii,no
same,Efficacy of various antibiotic agents,Campylobacter jejuni,no
same,Efficacy of various antibiotic agents,Moraxella catarrhalis,no
same,Efficacy of various antibiotic agents,Bordetella pertussis,no
same,Efficacy of various antibiotic agents,Clostridium perfringens,no
same,Efficacy of various antibiotic agents,Haemophilus ducreyi,no
same,Efficacy of various antibiotic agents,Pseudomonas aeruginosa,no
same,Efficacy of various antibiotic agents,Providencia stuartii,no
same,Efficacy of various antibiotic agents,Providencia rettgeri,no
same,Efficacy of various antibiotic agents,Yersinia pestis,no
same,Efficacy of various antibiotic agents,Brucella species,no
same,Efficacy of various antibiotic agents,[3],yes
same,Efficacy of various antibiotic agents,Enterobacter aerogenes,no
same,Efficacy of various antibiotic agents,Proteus vulgaris,no
same,Efficacy of various antibiotic agents,Haemophilus influenzae,no
same,Efficacy of various antibiotic agents,Corynebacterium jeikeium,no
same,Efficacy of various antibiotic agents,Rickettsiae,no
same,Efficacy of various antibiotic agents,Escherichia coli,no
same,Efficacy of various antibiotic agents,[4],no
same,activity against gram-positive staphylococci and streptococci,[5],excellent activity
same,Efficacy of various antibiotic agents,[6],no
same,Efficacy of various antibiotic agents,Pseudomonas fluorescens,no
same,Efficacy of various antibiotic agents,Acinetobacter lwoffii,no
same,Efficacy of various antibiotic agents,Klebsiella oxytoca,no
same,Efficacy of various antibiotic agents,Citrobacter diversus,no
same,Efficacy of various antibiotic agents,Shigella flexneri,no
same,Efficacy of various antibiotic agents,Enterobacter sakazakii,no
same,Efficacy of various antibiotic agents,[7],no
same,Efficacy of various antibiotic agents,Neisseria meningitidis,no
same,Efficacy of various antibiotic agents,Acinetobacter baumannii,no
same,Efficacy of various antibiotic agents,Klebsiella pneumoniae,no
same,Efficacy of various antibiotic agents,Francisella tularensis,no
same,Efficacy of various antibiotic agents,Proteus mirabilis,no
same,Efficacy of various antibiotic agents,Bartonella bacilliformis,no
same,Efficacy of various antibiotic agents,Legionella pneumophila,no
same,Efficacy of various antibiotic agents,Shigella boydii,no
same,Efficacy of various antibiotic agents,Serratia marcescens,no
same,Efficacy of various antibiotic agents,Shigella sonnei,no
same,Efficacy of various antibiotic agents,Shigella dysenteriae,no
same,Efficacy of various antibiotic agents,Salmonella typhi,no
C[C@@H](c1ncncc1F)[C@](O)(Cn1cncn1)c1ccc(F)cc1F [Voriconazole],Efficacy of various antifungal agents,Aspergillus terreus,yes
same,Efficacy of various antifungal agents,Aspergillus fumigatus,yes
same,Efficacy of various antifungal agents,Aspergillus niger,yes
same,Efficacy of various antifungal agents,Fusarium species,yes
same,Efficacy of various antifungal agents,Candida species,yes
